Data published in patent US4833241A, “Anthracycline compound” (Kirin Beer Kabushiki Kaisha, priority 1986, dated 1989).
Where two headings read alike, the source gives them in different places.

Columns and labels:
[1] = test system: P388 leukemia; assay: Antitumor activity in CDF1 mice with intraperitoneally transplanted P388 leukemia, i.v. administration, 30-day survival; assay type: in vivo; conditions: for Increase in life span T/C (%): days 1 and 5, saline control = 100%; for ED (T/C 130%): Mus musculus, 720 h
[2] = in vivo; conditions: mouse, iv
[3] = Stability of M-R20X3 during measurements (1) through (4); assay type: physicochemical

COc1cccc2c1C(=O)c1c(O)c3c(c(O)c1C2=O)C[C@@](O)(C(=O)CO)C[C@@H]3O[C@H]1C[C@H](N)[C@H](O)[C@H](C)O1 [Adriamycin, reference compound]
Increase in life span T/C (%) ([1]; 1 mg/kg/day i.v.): 103%
Increase in life span T/C (%) ([1]; 2 mg/kg/day i.v.): 119%
Increase in life span T/C (%) ([1]; 4 mg/kg/day i.v.): 133%
Increase in life span T/C (%) ([1]; 8 mg/kg/day i.v.): 165%
Increase in life span T/C (%) ([1]; 12 mg/kg/day i.v.): 244%

CC[C@]1(O)Cc2c(O)c3c(c(O)c2[C@@H](O[C@H]2C[C@H](N4CCOCC4)[C@H](O)[C@H](C)O2)C1)C(=O)c1c(O)cccc1C3=O [M-R20X, 3'-deamino-3'-(4-morpholinyl)-13-deoxocarminomycin]
ED (T/C 130%) ([1]; iv, i.v., P388 leukemia in CDF1 mice, read-out: Dose for T/C = 130%): 2.5 mg/kg/day
LD50 [2]: 12.3 mg/kg

CC[C@@]1(O)C[C@H](O[C@H]2C[C@H](N3CCOCC3)[C@H](O)[C@H](C)O2)c2c(O)c3c(c(O)c2[C@H]1C(=O)O)C(=O)c1cccc(O)c1C3=O [M-R20X3, 3'-deamino-3'-(4-morpholinyl)-13-deoxo-10-hydroxycarbonylcarminomycin]
Stability (lability) [3]: extremely labile
Decomposition after completion of the measurements ([3]; measurements (1) through (4) carried out quickly): no decomposition was observed

CC[C@@]1(O)C[C@H](O[C@H]2C[C@H](N3CCOCC3)[C@H](O)[C@H](C)O2)c2c(O)c3c(c(O)c2C1O)C(=O)c1cccc(O)c1C3=O (some centres unmarked) [M-R20X2, 3'-deamino-3'-(4-morpholinyl)-13-deoxo-10-hydroxycarminomycin]
ED (T/C 130%) ([1]; P388, iv, read-out: Dose for T/C = 130% (mg/kg/day)): 0.43 mg/kg/day
Therapeutic index ([1]; mouse, in vivo, iv): 4.7
Solubility (soluble in) (acidic water, basic water, methanol, ethanol, propanol, acetone, ethyl acetate, and chloroform): Soluble
Solubility (insoluble in) (water, hexane, cyclohexane, diethyl ether, and petroleum ether): Insoluble
LD50 [2]: 3.55 mg/kg
